Source: PubChem BioAssay AID192 (DTP/NCI, 2004)
Values joined by “and” are separate entries in the source; they are usually repeats but may differ in a detail not shown here. Equal entries are not always repeated. Toxic doses and inconclusive results are not listed. The calls were made as follows: active = survival T/C of 150% or more; inactive = T/C below 125% in these data.

System: BDF1 mice, B16 melanoma ip, median survival T/C
Experiment: NCI In Vivo Anticancer Drug Screen. Data for tumor model B16 Melanoma (intraperitoneal) in B6D2F1 (BDF1) mice
Conditions: endpoint: median survival time, higher = longer survival
In short: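 Vehicle-treated animals serve as the reference (C); treated animals (T) are scored for survival or tumor size after tumor transplantation.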

[1] = dose: 12.5 mg/kg/injection, schedule: Q01DX009 (ip), vehicle: saline with Tween-80
[2] = dose: 25.0 mg/kg/injection, schedule: Q01DX009 (ip), vehicle: saline with Tween-80
[3] = dose: 50.0 mg/kg/injection, schedule: Q01DX009 (ip), vehicle: saline with Tween-80
[4] = dose: 100.0 mg/kg/injection, schedule: Q01DX009 (ip), vehicle: saline with Tween-80
[5] = dose: 12.5 mg/kg/injection, schedule: Q01DX009 (ip), vehicle: Klucel (hydroxypropylcellulose) (HPC)
[6] = dose: 25.0 mg/kg/injection, schedule: Q01DX009 (ip), vehicle: Klucel (hydroxypropylcellulose) (HPC)
[7] = dose: 25.0 mg/kg/injection, schedule: Q04DX003 (ip), vehicle: saline
[8] = dose: 50.0 mg/kg/injection, schedule: Q04DX003 (ip), vehicle: saline
[9] = dose: 100.0 mg/kg/injection, schedule: Q01DX009 (ip), vehicle: Klucel (hydroxypropylcellulose) (HPC)
[10] = dose: 100.0 mg/kg/injection, schedule: Q04DX003 (ip), vehicle: saline
[11] = dose: 200.0 mg/kg/injection, schedule: Q04DX003 (ip), vehicle: saline

Measured: T/C

Cc1cc(N(C)C)cc(C)c1N=Nc1cc[n+]([O-])cc1
inactive: dose: 3.13 mg/kg/injection, schedule: Q01DX009 (ip), vehicle: saline with Tween-80 98 % of control | dose: 6.25 mg/kg/injection, schedule: Q01DX009 (ip), vehicle: saline with Tween-80 100 % of control | [1] 105 % of control | [2] 108 % of control | [3] 95 % of control and 113 % of control

CC(C)CN(CCCCO)CC(C)C
inactive: [3] 102 % of control | [4] 111 % of control | dose: 200.0 mg/kg/injection, schedule: Q01DX009 (ip), vehicle: saline with Tween-80 98 % of control

O=C(O)COc1ccc(OCC(=O)O)cc1
inactive: dose: 0.75 mg/kg/injection, schedule: Q01DX009 (ip), vehicle: Klucel (hydroxypropylcellulose) (HPC) 89 % of control | dose: 1.5 mg/kg/injection, schedule: Q01DX009 (ip), vehicle: Klucel (hydroxypropylcellulose) (HPC) 89 % of control

CC1NC(=O)COC1c1ccccc1 (stereo not drawn)
inactive: [5] 95 % of control | dose: 12.5 mg/kg/injection, schedule: Q04DX003 (ip), vehicle: saline 95 % of control | [6] 95 % of control | [7] 92 % of control | dose: 50.0 mg/kg/injection, schedule: Q01DX009 (ip), vehicle: Klucel (hydroxypropylcellulose) (HPC) 102 % of control | [8] 97 % of control | [9] 97 % of control | [10] 95 % of control | [11] 97 % of control

CCN(CC)CCOc1ccc(NC2=C(Cl)C(=O)C(Nc3ccc(OCCN(CC)CC)cc3)=C(Cl)C2=O)cc1
inactive: dose: 6.25 mg/kg/injection, schedule: Q01DX009 (ip), vehicle: saline + alcohol 95 % of control | dose: 12.5 mg/kg/injection, schedule: Q01DX009 (ip), vehicle: saline + alcohol 98 % of control | dose: 25.0 mg/kg/injection, schedule: Q01DX009 (ip), vehicle: saline + alcohol 91 % of control

CC(=O)OC(C)C(=O)C(Cl)(Cl)Cl (stereo not drawn)
inactive: [9] 96 % of control | dose: 200.0 mg/kg/injection, schedule: Q01DX009 (ip), vehicle: Klucel (hydroxypropylcellulose) (HPC) 107 % of control | dose: 400.0 mg/kg/injection, schedule: Q01DX009 (ip), vehicle: Klucel (hydroxypropylcellulose) (HPC) 107 % of control

c1cc(NC2CCCCC2)ccc1CN1CCOCC1
inactive: dose: 12.5 mg/kg/injection, schedule: Q01DX009 (ip), vehicle: saline + Tween-80 + alcohol 100 % of control and 104 % of control | dose: 25.0 mg/kg/injection, schedule: Q01DX009 (ip), vehicle: saline + Tween-80 + alcohol 91 % of control and 102 % of control | dose: 50.0 mg/kg/injection, schedule: Q01DX009 (ip), vehicle: saline + Tween-80 + alcohol 91 % of control and 97 % of control | dose: 100.0 mg/kg/injection, schedule: Q01DX009 (ip), vehicle: saline + Tween-80 + alcohol 88 % of control and 97 % of control | dose: 200.0 mg/kg/injection, schedule: Q01DX009 (ip), vehicle: saline + Tween-80 + alcohol 88 % of control and 89 % of control | dose: 400.0 mg/kg/injection, schedule: Q01DX009 (ip), vehicle: saline + Tween-80 + alcohol 95 % of control

CCN(c1ccccc1C)S(=O)(=O)c1ccccc1
inactive: [2] 100 % of control | [3] 101 % of control | [9] 96 % of control | [4] 96 % of control

CN(C)N=Nc1ccccc1
inactive: dose: 6.25 mg/kg/injection, schedule: Q01DX009 (ip), vehicle: Klucel (hydroxypropylcellulose) (HPC) 120 % of control | [5] 112 % of control and 123 % of control | [6] 117 % of control

OC1CC2CCC(C1)N2CCCN1c2ccccc2Sc2ccc(Cl)cc21 (stereo not drawn)
inactive: [7] 97 % of control | [8] 90 % of control | [10] 93 % of control | [11] 88 % of control

Cc1c(Cl)cccc1NC(=O)NCCC(C)C
inactive: [1] 103 % of control | [2] 100 % of control | [3] 96 % of control

O=c1oc(/C=C/c2ccccc2)nc2cc(Cl)ccc12
inactive: [9] 109 % of control

CCCCNC(C)(C)C(SSSC(c1ccc(Cl)cc1)C(C)(C)NCCCC)c1ccc(Cl)cc1 (stereo not drawn)
inactive: [5] 97 % of control | [6] 89 % of control
